Values of other authors, collected in patent publication US4922021A, “New alkylene diamine derivatives” (BASF Aktiensellschaft, priority 1981, dated 1990).

Experiments:
[1] = tested on: respiratory centre; conditions: Bull. Soc. Chim. France 1947, 827; cited from earlier work
[2] = tested on: sympathic nervious system; conditions: Bull. Soc. Chim. France 1940, 603; cited from earlier work
[3] = literature; cited from earlier work

CCN(CC)CCNc1cccc(Cl)c1 [1-(3-chlorophenyl-amino)-2-diethylamino-ethane]
stimulates the respiratory centre [1]: stimulates the respiratory centre

CC(CN)Nc1ccccc1 (stereo not drawn) [1-amino-2-phenylamino-propane]
acting on the sympathetic nervous system [2]: acting on the sympathic nervious system

CCN(CC)CCNc1c(C)cccc1C [1-(2,6-dimethylphenyl-amino)-2-diethylamino-ethane]
local anaesthetic effects [3]: local anaesthetic effects
